Experiments:
Assay type in all cases: in vivo, mouse
C57BL/6J mice [1] = assay: T-maze spontaneous alternation test (spatial working memory); conditions: old mice and old mice subjected to FMT from young donors; PLX5622 chow versus respective control mice; FIG. 15B
Procedure: (§1) In order to acutely deplete the gut microbiota, 15-16 months old SPF males were treated via oral gavage with a mixture of antibiotics (ABX), containing Cefoxitin (Santa Cruz Biotechnology), Gentamicin (Sigma-Aldrich) Metronidazole (Sigma-Aldrich), and Vancomycin (Hikma-pharma), each 10 mg/kg in sterile 1×PBS, for three consecutive days. On the fourth day, the mice were treated with one dose of Clindamycin hydrochloride (33.3 mg/kg) (Sigma-Aldrich). Fecal microbiota transplantations (FMTs) were started 24 h later. To deplete csf1-dependent cells in vivo, including microglia, mice were provided with CSF1R-inhibitor PLX5622 (Plexxicon Inc.) mixed into AIN-76A standard chow at 1200 mg/kg (Research Diets Inc.) ad libitum. Respective controls received AIN-76A standard chow. Mice were injected with 5 mg/kg δ-valerobetaine (MCAT, Germany) 1 h before behavioral testing.
(§2) For microbiota depletion studies, SPF mice were treated with 1 mg/ml of ampicillin (Auromedics), neomycin sulfate (Fisher), streptomycin (Sigma) and 0.5 mg/ml of vancomycin (Sagent) in the drinking water for 4-5 weeks (Khosravi et al., 2014). These mice were recolonized via FMT, which was achieved by oral gavage of a faecal slurry. Recipient mice had the food removed from the cage for 2 h prior to FMT. The faecal slurry was obtained by pooling faecal pellets from 8-14 donor mice. The pellets were weighed and resuspended by vortexing for 1 min in 1 mL PBS per 300 mg of faeces. After pelleting larger particles by centrifugation at 500×g for 5 min, the supernatant was collected for FMT. Each recipient mouse received 150 μl of faecal slurry by oral gavage. The remaining slurry was stored at −80° C. for 16S rRNA sequencing. Following FMT, the cages of recipient mice were replenished with dirty bedding and fresh faecal pellets from donor mice once and twice a week, respectively. Faecal pellets for 16S rRNA sequencing were collected the day before FMT and at the end of the experiment and were stored at −80° C. for DNA extraction. For re-colonization of ABX treated mice, FMTs from 8 weeks old or 15-16 months old males were undergone. Fresh fecal pellets are collected under a sterile hood and directly thoroughly homogenized in 0.1% L-Cysteine hydrochloride monohydrate in 1×PBS in order to maintain anaerobic microbes. The homogenates were spun down for 1 min, 200 g at 4° C. and the turbid supernatant was used to orally and rectally gavage the recipient mice. The FMT was performed twice 72 h apart.
(§3) NNN-trimethyl-5-aminovalerate was dissolved in 0.9% NaCl and administered i.p. at a dose of 200 mg/kg in a volume of 10 ml/kg. As control the vehicle NaCl was injected.
(§4) Mice were tested 40 min after drug- or vehicle injection or 4 weeks after FMT. We first performed the training run for the Novel-object recognition test, followed by the T maze test and then 6 h after the training session mice were tested in the Novel object recognition test. Spatial working memory was tested using the continuous spontaneous alternation task in a T-maze as described previously (Spowart-Manning, L. et al). Briefly, animals were set into the base of a T-maze and allowed to explore a randomly assigned T-maze arm until it returned to the base arm. Subsequently, the blocked arm was opened, and the animal was allowed to explore the complete maze. Once one arm of the T-maze was entered, the other arm was blocked until the animal returned to the base arm. Then, the exit of the base arm was blocked for 5 s and the animal was allowed to explore the maze again. The experiment was stopped after 14 free choice arm entries. Arm entries were scored as alternations if an animal chose the opposing arm compared to the arm visited immediately prior to the scored instance. The Novel Object Recognition (NOR) task was applied to evaluate recognition memory as published previously (Antunes, M. & Biala, G. et al). During the habituation phase, each mouse was allowed to explore two similar objects within a total exploration time of 20 s. […]

C57BL/6J mice [2] = assay: Novel object recognition (NOR) test (recognition memory); conditions: old mice and old mice subjected to FMT from young donors; PLX5622 chow versus respective control mice; FIG. 15C-D
Procedure: as §1, §2, §3, §4

microglia = assay: Microglia depletion verified by Iba-1 immunohistochemistry; conditions: 1200 mg/kg in AIN-76A chow ad libitum; cortex and hippocampus; FIG. 15E-F
Procedure: as §1
Mice were lethally anesthetized with ketamine (100 mg/kg bodyweight) and xylazine (10 mg/kg body weight) followed by perfusion with 1×PBS through the left heart chamber. For histology, the brains were kept overnight in 4% PFA. The brains were then dehydrated in 30% sucrose and embedded in Tissue-Tek O.C.T.™ compound (Sakura Finetek Germany GmbH). […] Fluorescence imaging was performed with BZ-9000 Biorevo microscope (Keyence). Iba-1+DAPI+ cells were quantified using ImageJ (v. 1.53c).

With COc1ncc(F)cc1CNc1ccc(Cc2c[nH]c3ncc(C)cc23)c(F)n1 [PLX5622, reference compound] the “T maze performance of mice lacking microglia” value (C57BL/6J mice [1]) was “unchanged”, the “NOR performance of mice lacking microglia” value (C57BL/6J mice [2]) was “unchanged” and the “microglia in brain tissue (Iba-1 immunohistochemistry)” value (microglia) was “almost complete absence”.
